Assay results reported in patent US20190111059A1, “COMPOSITIONS AND METHODS FOR TREATING AUTISM SPECTRUM DISORDER” (Marinus Pharmaceuticals, Inc., priority 2017, published 2019).
Where a name gives a salt, the structure may show the parent alone.

What was measured:
[1] = system: children with non-syndromic autism spectrum disorder (ASD) and language impairment; assay: Randomized placebo-controlled trial: Aberrant Behavior Checklist (ABC), parent questionnaire; assay type: in vivo, human; conditions: lower = less problems; for ABC Hyperactivity, estimated effect / ABC Inappropriate speech, estimated effect / ABC Irritability, estimated effect / ABC Lethargy, estimated effect / ABC Stereotyped behavior, estimated effect / ABC Total Score, estimated effect: vs placebo, mixed-model regression, calcium salt
Source text: The Aberrant Behavior Checklist (“ABC”) is a 58-item questionnaire that measures disruptive behaviors, including Irritability (15 items, range 0-45); Social Withdrawal (16 items, range 0-48); Stereotypy (7 items, range 0-21); Hyperactivity (16 items, range 0-48) and Inappropriate Speech (4 items, range 0-12). Each item is rated 0 to 3 with higher scores indicating greater severity. Multiple ASD clinical trials have used it and it has convergent and divergent validity. […] This two-arm double-blind randomized placebo-controlled parallel study with a 1:1 allocation was performed at Arkansas Children's Research Institute (Little Rock, Ark., USA) from 4 Jun. 2012 to 22 Nov. 2013. Parent and teacher questionnaires were requested at baseline and 6 and 12 weeks after starting treatment. Parents were asked to deliver baseline questionnaires to teachers or therapists. After the first visit, questionnaires were mailed to the parents and teachers at least 1 week prior to the target date of completion. Parents were asked to bring the completed teacher and parent 12-week questionnaires to the final assessment. Other questionnaires were returned in a preaddressed postage-paid envelope. The target dose of the intervention (INN: DL folinic acid calcium salt; USAN: leucovorin calcium) was 2 mg kg^−1 per day (maximum 50 mg per day) in two equally divided doses with half of the target dose given during the first 2 weeks. Dye-free, milk-product-free, vegetarian capsules were provided in three strengths (5, 10 and 25 mg) by Lee Silsby Compounding Pharmacy (Cleveland Heights, Ohio, USA). Certificate of analysis was provided for each capsule strength by an independent analytical service (Eagle Analytical Services, Houston, Tex., USA) for each batch of capsules produced. In all cases, potency was at least 99%. Secondary outcomes. Secondary outcome measures included the Ohio Autism Clinical Impression Scale (OACIS), Vineland Adaptive Behavior Scale 2nd Edition (VABS) Survey Interview Form and several questionnaires. Parents and teachers were asked to complete the Aberrant Behavior Checklist (ABC), Social Responsiveness Scale (SRS) and Behavioral Assessment System for Children 2nd Edition (BASC). Only parents were asked to complete the Autism Impact Measure (AIM) and Autism Symptoms Questionnaire (ASQ). Secondary outcome measures were analyzed using the mixed-model regression. Because of the large number of secondary outcomes, correction for multiple comparisons was conducted using the false discovery rate.

[2] = system: children with non-syndromic autism spectrum disorder (ASD) and language impairment; assay: Randomized placebo-controlled trial: Autism Symptoms Questionnaire (ASQ); assay type: in vivo, human; conditions: lower = less autism symptoms; for ASQ Stereotypic behavior, estimated effect / ASQ Total score, estimated effect: calcium salt
Experimental: The Autism Symptoms Questionnaire (“ASQ) is a 34-item checklist (The Center for Autism and Related Disorders) that assesses social interaction (12 items, range 0-4), stereotyped behavior (7 items, range 0-4), communication symptoms (15 items, range 0-5) and total symptoms (34 items, […]). […] This two-arm double-blind randomized placebo-controlled parallel study with a 1:1 allocation was performed at Arkansas Children's Research Institute (Little Rock, Ark., USA) from 4 Jun. 2012 to 22 Nov. 2013. Parent and teacher questionnaires were requested at baseline and 6 and 12 weeks after starting treatment. Parents were asked to deliver baseline questionnaires to teachers or therapists. After the first visit, questionnaires were mailed to the parents and teachers at least 1 week prior to the target date of completion. Parents were asked to bring the completed teacher and parent 12-week questionnaires to the final assessment. Other questionnaires were returned in a preaddressed postage-paid envelope. The target dose of the intervention (INN: DL folinic acid calcium salt; USAN: leucovorin calcium) was 2 mg kg^−1 per day (maximum 50 mg per day) in two equally divided doses with half of the target dose given during the first 2 weeks. Dye-free, milk-product-free, vegetarian capsules were provided in three strengths (5, 10 and 25 mg) by Lee Silsby Compounding Pharmacy (Cleveland Heights, Ohio, USA). Certificate of analysis was provided for each capsule strength by an independent analytical service (Eagle Analytical Services, Houston, Tex., USA) for each batch of capsules produced. In all cases, potency was at least 99%. Secondary outcomes. Secondary outcome measures included the Ohio Autism Clinical Impression Scale (OACIS), Vineland Adaptive Behavior Scale 2nd Edition (VABS) Survey Interview Form and several questionnaires. Parents and teachers were asked to complete the Aberrant Behavior Checklist (ABC), Social Responsiveness Scale (SRS) and Behavioral Assessment System for Children 2nd Edition (BASC). Only parents were asked to complete the Autism Impact Measure (AIM) and Autism Symptoms Questionnaire (ASQ). Secondary outcome measures were analyzed using the mixed-model regression. Because of the large number of secondary outcomes, correction for multiple comparisons was conducted using the false discovery rate.

[3] = system: children with ASD who were positive for at least one FRAA; assay: Controlled open-label study of high-dose folinic acid (Example 1); assay type: in vivo, human; conditions: 2 mg kg^−1 per day in two divided doses, maximum 50 mg per day
[4] = system: children with neurodevelopmental regression and neurological abnormalities (cerebral folate deficiency); conditions: six children with cerebral folate deficiency; cited from earlier work
[5] = vs placebo, mixed-model regression
[6] = vs placebo, mixed-model regression, listed as folinic acid

Nc1nc2c(c(=O)[nH]1)N(C=O)C(CNc1ccc(C(=O)N[C@@H](CCC(=O)O)C(=O)O)cc1)CN2 (mixture of isomers) [Folinic acid, DL folinic acid calcium salt]
ABC Inappropriate speech, 12-week assessment mean ([1]; 2 mg kg^−1 per day, 12 weeks, baseline 5.2): 4.0 Raw Score
ABC Stereotyped behavior, 12-week assessment mean ([1]; 2 mg kg^−1 per day, 12 weeks, baseline 6.1): 3.7 Raw Score
ABC Lethargy, 12-week assessment mean ([1]; 2 mg kg^−1 per day, 12 weeks, baseline 13.1): 9.7 Raw Score
ABC Irritability, 12-week assessment mean ([1]; 2 mg kg^−1 per day, 12 weeks, baseline 13.4): 9.1 Raw Score
ABC Hyperactivity, 12-week assessment mean ([1]; 2 mg kg^−1 per day, 12 weeks, baseline 25.0): 22.1 Raw Score
ABC Total Score, 12-week assessment mean ([1]; 2 mg kg^−1 per day, 12 weeks, baseline 62.7): 48.5 Raw Score
ABC Hyperactivity, estimated effect [1]: −1.8 Raw Score
ABC Inappropriate speech, estimated effect [1]: −1.7 Raw Score
ABC Irritability, estimated effect [1]: −1.2 Raw Score
ABC Lethargy, estimated effect [1]: −1.4 Raw Score
ABC Stereotyped behavior, estimated effect [1]: −0.9 Raw Score
ABC Total Score, estimated effect [1]: −4.7 Raw Score
ABC Hyperactivity, estimated effect ([1]; listed as folinic acid): significantly improved
ABC Inappropriate speech, estimated effect ([1]; listed as folinic acid): significantly improved
ABC Irritability, estimated effect ([1]; listed as folinic acid): significantly improved
ABC Lethargy, estimated effect ([1]; listed as folinic acid): significantly improved
ABC Stereotyped behavior, estimated effect ([1]; listed as folinic acid): significantly improved
ABC Total Score, estimated effect ([1]; listed as folinic acid): significantly improved
ASQ Stereotypic behavior, 12-week assessment mean ([2]; 2 mg kg^−1 per day, 12 weeks, baseline 3.1): 3.2 Raw Score
ASQ Social, 12-week assessment mean ([2]; 2 mg kg^−1 per day, 12 weeks, baseline 3.5): 3.3 Raw Score
ASQ Communication, 12-week assessment mean ([2]; 2 mg kg^−1 per day, 12 weeks, baseline 4.7): 4.7 Raw Score
ASQ Total score, 12-week assessment mean ([2]; 2 mg kg^−1 per day, 12 weeks, baseline 11.3): 11.2 Raw Score
ASQ Communication, estimated effect [2, 5]: 0.0 Raw Score
ASQ Social, estimated effect [2, 5]: −0.1 Raw Score
ASQ Stereotypic behavior, estimated effect [2, 5]: −0.2 Raw Score
ASQ Total score, estimated effect [2, 5]: −0.3 Raw Score
ASQ Stereotypic behavior, estimated effect [2, 6]: significantly improved
ASQ Total score, estimated effect [2, 6]: significantly improved
Adverse effects [3]: very few adverse effects reported
Improvements in verbal communication, receptive and expressive language, attention, and stereotypical behavior [3]: significant improvements
CSF folate concentrations [4]: normalized
Neurological symptoms [4]: significantly improved
